How the values were obtained:
Format in all cases: cell-based
A549 cells = assay: Pathway for the cellular entry of the probe (NaN3 or 4 °C block of energy-dependent endocytosis); settings: 5 μM probe, 30 min
Experimental: (§1) FIGS. 29A-29F Pathway for the cellular uptake of the probe. The cells were either (FIGS. 29A-29C) treated with sodium azide (NaN3) or (FIGS. 29D-29F) incubated at 4° C. for blocking energy-dependent endocytosis (red bars). Cells under normal cell culture conditions (37° C. without NaN3) serve as the positive control (green bars). Statistical analysis was conducted by two-tailed Student's t test. Not significant (ns) P>0.05. Error bar indicates standard deviation.
(§2) Cells were firstly cultured in a 96-well plate and allowed to reach about 90% confluence. In our first experiment, the cells were either pretreated in 0.1 mL of complete DMEM containing 5 mM NaN3 (Sigma) at 37° C. for 3 h. After that, the medium was replaced by 0.1 mL of complete medium containing 5 mM NaN3 and 5 μM leuco-BODIPY (in 0.5% DMSO) at 37° C. for another 30 min. In our second experiment, the cells were preincubated with 0.1 mL of complete DMEM inside a 4° C. refrigerator for 30 min. After that, the medium was replaced by 0.1 mL of complete medium containing 5 μM leuco-BODIPY (in 0.5% DMSO) for another 30 min and incubated at 4° C. As the […], cells were incubated with 0.1 mL of complete medium containing 5 μM leuco-BODIPY (in 0.5% DMSO) at 37° C. for 30 min. At the end of both experiments, the fluorescence of the treated cells was measured by a microplate reader (ThermoFisher Fluoroskan Ascent, Waltham, MA) at an excitation wavelength of 584 nm and emission wavelength of 612 nm.
(§3) We studied the mechanism for the cellular uptake of our probe by a pharmacological approach.

HEK293 cells = assay: as above; settings: 5 μM probe, 30 min
Experimental: as §1, §2, §3

HeLa cells [1] = assay: as above; settings: 5 μM probe, 30 min
Experimental: as §1, §2, §3

HeLa cells [2] = assay: Effect of probe staining on the secretion of EVs (nanoparticle tracking analysis); settings: 5 μM leuco-BODIPY, 3 h, NTA
Experimental: FIGS. 32A-32B Effect of probe staining on the secretion of EVs. HeLa cells were incubated with (FIG. 32A) complete DMEM or (FIG. 32B) DMEM containing 5 μM leuco-BODIPY for 3 h. After that, the EV sample was isolated from the cells for nanoparticle tracking analysis (NTA).
EV samples were diluted with filtered PBS (0.2 μm) to obtain an EV concentration of 10^8-10^9 particles/mL. For each sample, four 1-min videos were recorded when introduced about 1 mL of the conditioned medium to the NTA system (Malvern NanoSight NS500, Malvern, UK). The temperature was kept at about 18° C. Images in each video were analyzed with NTA 3.1 Build 3.1.45 software (Malvern). Auto settings were used for blur size and maximum jump distance. 2000 frames were examined per sample. […]
Moreover, we incubated the three cell types with our probe for 30 min, isolated the EVs secreted to the culture medium, centrifuged the collected medium to remove any dye-stained cell fragments, and confirmed the detection of fluorescence in the isolated EVs (Table 1). By contrast, for the EVs isolated from the same cell types under the same culture conditions but without treatment by our probe, the fluorescence detected was at the background level of blank culture medium.

[3] = pretreatment with sodium azide (5 mM)

SMILES: CCOC(=O)C(=Cc1ccc2n1[B-](F)(F)n1c(C=C(C(=O)OCC)C(=O)OCC)ccc1C2(OC)c1ccncc1)C(=O)OCC [leuco-BODIPY]
- cellular uptake of the probe (A549 cells; preincubation at 4 °C): did not significantly affect
- cellular uptake of the probe (A549 cells; [3]): did not significantly affect
- cellular uptake of the probe (HEK293 cells; preincubation at 4 °C): did not significantly affect
- cellular uptake of the probe (HEK293 cells; [3]): did not significantly affect
- cellular uptake of the probe (HeLa cells [1]; preincubation at 4 °C): did not significantly affect
- cellular uptake of the probe (HeLa cells [1]; [3]): did not significantly affect
- effect on EV secretion (size distribution of EVs from dye-stained vs unstained cells) (HeLa cells [2]): limited effect

— patent US12578273B2, “Ph-reversible leuco-BODIPY probe for in situ visualization of extracellular vesicles and their secretion from living cells” (The Chinese University of Hong Kong, priority 2021, dated 2026)
